For one test, the target named is T1, HDAC4 (Homo sapiens, UniProt P56524).
T1 construct: made in house
Put plainly: HDAC4 fluorometric enzyme inhibition assay, purified recombinant enzyme, 10-point dose-response. It counts as biochemical. As to conditions: Table 1; purified recombinant HDAC4 1 nM; mean of three independent experiments; >35 µM = weak inhibitor. The protocol:
(§1) Therefore, the first stage of biological evaluation focused on determining inhibitory concentration (IC50) values of the squaric acid derivatives against HDAC8 and HDAC4 using purified recombinant enzymes. Enzymatic inhibition was quantified using 10‐point dose–response assays, from which IC50 values were calculated (Table 1). HDAC8 and HDAC4 were employed at concentrations of 10 nM and 1 nM, respectively, while other zinc‐dependent HDAC isoenzymes were used at approximate concentrations of ∼1 nM, reflecting the purity of the commercially available preparations. […]
(§2) 1.3.1 HDAC Assay General Inform ation
(§3) The activity of HDAC1, HDAC4, HDAC6, HDAC8, and HDAC11 was determined using a fluorometric assay in black half-area 96-well microplates (Greiner Bio -One , Germany). HDAC1 (#50051) and HDAC 6 (#50006) were purchased from BPS Bioscience.
(§4) HDAC4, HDAC8 and HDAC11 were produced in house as previously described.7- 9 The enzymes were pre-incubated with serial dilutions of the compounds for 1 hour at 30 °C in either assay buffer (25 mM Tris-HCl, 75 mM KCl and 0.001% (v/v) Pluronic F -127, pH 8.0) or MAL buffer (137 m M NaCl, 50 mM Tris-HCl, 2.7 mM KCl, 1 mM MgCl₂, 0 .5 mg/ml bovine serum albumin (BSA), pH 8.0b) for HDAC11. The enzyme reaction was initiated by the addition of the following substrates: 20 µM Boc-L ys(T FA) -AMC for HDAC4 and HDAC8; 80 µM Boc-L ys(T FA) -AMC for HDAC11; and 50 µM Boc -Lys(Ac)-AMC for HDAC1 and HDAC6. After an incubation period of 60 minutes, the reaction was terminated by the addition of 1.7 µM 9,9,9-trifluoro-8-oxo-N -phenyl -nonanamide (SATFMK) for […]
(§5) HDAC6, and 1 µM 1,1-dimethyl -2-[5-(trifluoromethyl)pyrazin-2-yl]isoindoline -4-carbohydroxamic acid (FT895) for HDAC11. The deacetylated substrate was then cleaved into fluorescent 7-amino -4- methylcoumarin (AMC) by the addition of 0.42 mg/mL trypsin.
(§6) Measurements were performed using a PHERAstar FS fluorescence microplate reader (BMG LABTECH) with excitation at 360 nm and emission at 460 nm. The normalised enzyme activities were plotted against the respective ligand concentration and fitted with a four-parameter logistic function using GraphPad Prism 6 software.

Another test has as its target T2, HDAC8 (Homo sapiens, UniProt Q9BY41).
T2 construct: made in house
T2 sequence (Q9BY41 1-377): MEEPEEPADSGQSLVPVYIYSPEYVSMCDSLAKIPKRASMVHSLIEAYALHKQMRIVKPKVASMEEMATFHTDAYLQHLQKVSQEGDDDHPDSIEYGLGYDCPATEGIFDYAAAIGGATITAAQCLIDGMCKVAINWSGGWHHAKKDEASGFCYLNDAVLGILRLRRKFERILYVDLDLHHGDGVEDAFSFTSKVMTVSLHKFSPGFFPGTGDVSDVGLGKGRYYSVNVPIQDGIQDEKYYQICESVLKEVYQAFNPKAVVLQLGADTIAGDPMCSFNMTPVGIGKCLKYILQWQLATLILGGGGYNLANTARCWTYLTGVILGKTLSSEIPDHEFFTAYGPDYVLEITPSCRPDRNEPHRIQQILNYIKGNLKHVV
Put plainly: HDAC8 fluorometric enzyme inhibition assay, purified recombinant enzyme, 10-point dose-response. The settings on record: Table 1; purified recombinant HDAC8 10 nM; mean of three independent experiments; >35 µM = weak inhibitor. It counts as biochemical. The protocol:
as §1, §2, §3, §4, §5, §6

What is called IC50 is the concentration that inhibits the measured activity by half.

T1 sequence (P56524 whole entry): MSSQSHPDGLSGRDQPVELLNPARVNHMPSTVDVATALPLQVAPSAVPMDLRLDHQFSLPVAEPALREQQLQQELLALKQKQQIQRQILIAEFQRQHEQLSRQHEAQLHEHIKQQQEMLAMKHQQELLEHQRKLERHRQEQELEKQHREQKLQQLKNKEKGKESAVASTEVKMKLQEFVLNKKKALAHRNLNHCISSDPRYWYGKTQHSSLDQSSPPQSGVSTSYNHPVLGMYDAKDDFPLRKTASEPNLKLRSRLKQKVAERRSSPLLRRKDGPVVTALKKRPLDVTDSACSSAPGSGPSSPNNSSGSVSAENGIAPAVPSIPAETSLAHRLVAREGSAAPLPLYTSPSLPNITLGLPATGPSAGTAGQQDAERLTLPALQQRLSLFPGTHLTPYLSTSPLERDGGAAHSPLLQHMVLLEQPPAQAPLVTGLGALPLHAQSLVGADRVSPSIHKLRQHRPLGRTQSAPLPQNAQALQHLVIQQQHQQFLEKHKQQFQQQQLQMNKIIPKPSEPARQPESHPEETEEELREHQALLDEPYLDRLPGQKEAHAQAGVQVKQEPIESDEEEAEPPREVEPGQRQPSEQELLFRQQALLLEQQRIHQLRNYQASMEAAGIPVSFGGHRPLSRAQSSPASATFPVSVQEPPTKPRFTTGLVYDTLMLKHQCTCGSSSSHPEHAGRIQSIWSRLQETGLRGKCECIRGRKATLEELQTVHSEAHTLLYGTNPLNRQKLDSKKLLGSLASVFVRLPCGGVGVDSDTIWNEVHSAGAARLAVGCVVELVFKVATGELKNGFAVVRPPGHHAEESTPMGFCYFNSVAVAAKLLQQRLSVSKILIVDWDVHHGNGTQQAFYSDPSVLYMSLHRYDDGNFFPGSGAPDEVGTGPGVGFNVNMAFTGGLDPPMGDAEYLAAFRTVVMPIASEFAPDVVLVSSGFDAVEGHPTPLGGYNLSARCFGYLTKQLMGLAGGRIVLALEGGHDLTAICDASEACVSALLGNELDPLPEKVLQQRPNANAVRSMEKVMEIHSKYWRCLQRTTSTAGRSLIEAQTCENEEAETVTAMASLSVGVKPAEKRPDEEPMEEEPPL

With `CCOc1c(Nc2cccc(O)c2)c(=O)c1=O` [9 h], the IC50 on HDAC4 and on HDAC8 was more than 35 µM throughout.
In the case of `CCOc1c(N(C)Cc2ccc(Br)cc2)c(=O)c1=O` [10 h], the IC50 on HDAC4 and at HDAC8 was more than 35 µM throughout.
With `CCOc1c(N2CCS(=O)(=O)CC2)c(=O)c1=O` [12 h], the IC50 on HDAC4 and at HDAC8 was more than 35 µM each time.
On to `CCOc1c(Nc2ccccc2)c(=O)c1=O` [Compound 9a], for which the IC50 at HDAC4 and at HDAC8 was more than 35 µM throughout.
As to `CCOc1c(Nc2cccc(Cl)c2)c(=O)c1=O` [Compound 9c], the IC50 on HDAC4 and on HDAC8 was more than 35 µM in each case.
Consider `CCOc1c(Nc2ccc(Cl)cc2)c(=O)c1=O` [Compound 9d], for which the IC50 at HDAC4 and on HDAC8 was more than 35 µM in each case.
Take `CCOc1c(Nc2cccc(Br)c2)c(=O)c1=O` [Compound 9e]: the IC50 on HDAC4 and at HDAC8 was more than 35 µM in each case.
Turning to `CCOc1c(Nc2ccc(Br)cc2)c(=O)c1=O` [Compound 9f], the IC50 on HDAC4 and on HDAC8 was more than 35 µM in each case.
For the molecule `CCOc1c(Nc2ccccc2O)c(=O)c1=O` [Compound 9g], the IC50 at HDAC4 and on HDAC8 was more than 35 µM in each case.
Take `CCOc1c(Nc2ccc(O)cc2)c(=O)c1=O` [Compound 9i]: the IC50 at HDAC4 and on HDAC8 was more than 35 µM each time.
Turning to `CCOc1c(Nc2ccccc2OC)c(=O)c1=O` [Compound 9j], the concentration for half-maximal inhibition (IC50) at HDAC4 and on HDAC8 was more than 35 µM in each case.
Consider `CCOc1c(Nc2cccc(OC)c2)c(=O)c1=O` [Compound 9k], for which the IC50 on HDAC4 and at HDAC8 was more than 35 µM each time.
As for `CCOc1c(Nc2ccc(OC)cc2)c(=O)c1=O` [Compound 9l], the IC50 at HDAC4 and at HDAC8 was more than 35 µM in each case.
For the molecule `CCOc1c(Nc2cccc(C(F)(F)F)c2)c(=O)c1=O` [Compound 9m], the IC50 at HDAC4 and on HDAC8 was more than 35 µM each time.
As for `CCOc1c(Nc2ccc(C(F)(F)F)cc2)c(=O)c1=O` [Compound 9n], the IC50 on HDAC4 and on HDAC8 was more than 35 µM each time.
As to `CCOc1c(Nc2ccccc2C)c(=O)c1=O` [Compound 9o], the IC50 at HDAC4 and at HDAC8 was more than 35 µM throughout.
As to `CCOc1c(Nc2cccc(C)c2)c(=O)c1=O` [Compound 9p], the IC50 on HDAC4 and on HDAC8 was more than 35 µM in each case.
Turning to `CCOc1c(Nc2ccc(C)cc2)c(=O)c1=O` [Compound 9q], the IC50 at HDAC4 and at HDAC8 was more than 35 µM throughout.
Turning to `CCOc1c(Nc2cccc(C(=O)O)c2)c(=O)c1=O` [Compound 9r], the IC50 at HDAC4 and on HDAC8 was more than 35 µM throughout.
On to `CCOc1c(N(C)c2ccc(Br)cc2)c(=O)c1=O` [Compound 9s], for which the IC50 on HDAC4 and at HDAC8 was more than 35 µM each time.
On to `CCOc1c(NCc2ccccc2)c(=O)c1=O` [Compound 10a], for which the IC50 on HDAC4 and on HDAC8 was more than 35 µM each time.
Take `CCOc1c(NCc2ccccc2Cl)c(=O)c1=O` [Compound 10b]: the IC50 at HDAC4 and on HDAC8 was more than 35 µM throughout.
As for `CCOc1c(NCc2cccc(Cl)c2)c(=O)c1=O` [Compound 10c], the 50% inhibitory concentration (IC50) at HDAC4 and on HDAC8 was more than 35 µM each time.
For `CCOc1c(NCc2ccc(Cl)cc2)c(=O)c1=O` [Compound 10d], the IC50 at HDAC4 and on HDAC8 was more than 35 µM each time.
For the molecule `CCOc1c(NCc2ccccc2Br)c(=O)c1=O` [Compound 10e], the IC50 on HDAC4 and on HDAC8 was more than 35 µM each time.
As to `CCOc1c(NCc2cccc(Br)c2)c(=O)c1=O` [Compound 10f], the IC50 on HDAC4 and on HDAC8 was more than 35 µM in each case.
Turning to `CCOc1c(NCc2ccc(Br)cc2)c(=O)c1=O` [Compound 10g], the IC50 at HDAC4 and on HDAC8 was more than 35 µM throughout.
On to `CCOc1c(N(C(C)C)C(C)C)c(=O)c1=O` [Compound 11], for which the IC50 on HDAC4 and at HDAC8 was more than 35 µM throughout.
For the molecule `CCOc1c(N2CCC2)c(=O)c1=O` [Compound 12a], the IC50 at HDAC4 and at HDAC8 was more than 35 µM in each case.
`CCOc1c(N2CCCC2)c(=O)c1=O` [Compound 12b]: the concentration for half-maximal inhibition (IC50) on HDAC4 and on HDAC8 was more than 35 µM in each case.
In the case of `CCOc1c(N2CCCCC2)c(=O)c1=O` [Compound 12c], the IC50 at HDAC4 and on HDAC8 was more than 35 µM each time.
As for `CCOc1c(N2CCCCCC2)c(=O)c1=O` [Compound 12d], the IC50 on HDAC4 and on HDAC8 was more than 35 µM each time.
As for `CCOc1c(N2CCOCC2)c(=O)c1=O` [Compound 12e], the IC50 on HDAC4 and at HDAC8 was more than 35 µM each time.
Consider `CCOc1c(N2C[C@@H](C)O[C@@H](C)C2)c(=O)c1=O` [Compound 12f], for which the IC50 at HDAC4 and on HDAC8 was more than 35 µM in each case.
In the case of `CCOc1c(N2CCSCC2)c(=O)c1=O` [Compound 12g], the IC50 on HDAC4 and at HDAC8 was more than 35 µM each time.
Regarding `CCOc1c(N2CCSC2)c(=O)c1=O` [Compound 12i], the IC50 at HDAC4 and on HDAC8 was more than 35 µM throughout.
Take `CCOc1c(N2CCN(C(=O)OC(C)(C)C)CC2)c(=O)c1=O` [Compound 12j]: the IC50 at HDAC4 and at HDAC8 was more than 35 µM throughout.
`CCOc1c(N2CCCc3ccc(Br)cc32)c(=O)c1=O` [Compound 12k]: the IC50 on HDAC4 and on HDAC8 was more than 35 µM each time.
For `O=c1c(Nc2ccccc2)c(Nc2ccccc2)c1=O` [Compound 13a], the results for the half-inhibitory concentration (IC50) at HDAC4 and on HDAC8 were 14 ± 2 µM and more than 35 µM, respectively.
Turning to `CN(c1ccccc1)c1c(N(C)c2ccccc2)c(=O)c1=O` [Compound 14a], the IC50 at HDAC4 and on HDAC8 was more than 35 µM throughout.
Turning to `CN(c1ccc(Br)cc1)c1c(N(C)c2ccc(Br)cc2)c(=O)c1=O` [Compound 14c], the IC50 at HDAC4 and on HDAC8 was more than 35 µM each time.
For `O=c1c(N(Cc2ccccc2)c2ccc(Br)cc2)c(N(Cc2ccccc2)c2ccc(Br)cc2)c1=O` [Compound 15], the IC50 at HDAC4 and at HDAC8 was more than 35 µM each time.
In the case of `O=c1c(N2CCOCC2)c(N2CCOCC2)c1=O` [Compound 16a], the IC50 at HDAC4 and on HDAC8 was more than 35 µM throughout.
Consider `O=c1c(N2CCCCC2)c(N2CCCCC2)c1=O` [Compound 16b], for which the IC50 on HDAC4 and on HDAC8 was more than 35 µM each time.
With `CC(C)N1CCN(C(C)C)c2c1c(=O)c2=O` [Compound 17a], the IC50 at HDAC4 and on HDAC8 was more than 35 µM throughout.
In the case of `CN1CCCN(C)c2c1c(=O)c2=O` [Compound 17b], the IC50 at HDAC4 and on HDAC8 was more than 35 µM in each case.

For the origin of these results see article PMC13110267, “Fair and Square: Design, Synthesis and Biological Evaluations of Squaric Acid Derivatives as Novel HDAC8 Inhibitors” (Chemmedchem, 2026).
